Source: publication PMC9786170, “The Pharmacological Potential of Novel Melittin Variants from the Honeybee and Solitary Bees against Inflammation and Cancer” (Toxins, 2022)

What was measured:
calmodulin = conditions: cited from earlier work
Description: These two systems are rarely independent but are often antagonistic, sometimes synergistic, or occasionally redundant. Ca^2+ is never elevated without a possible consequence—either positive or negative— ...

[1] = tested on: IL-1β-activated rat knee joint cells; conditions: by inhibiting I-κB degradation and NF-κB migration into the nucleus; cited from earlier work
Description: (§1) LPS induces iNOS expression and the release of NO in RAW264.7 macrophages. […] Previously, Tang et al. reported that Melt prev ...

[2] = tested on: LPS-activated BV2 microglia; conditions: by blocking NF-κB translocation; cited from earlier work
Description: as §1

[3] = tested on: triple-negative and HER2-enriched breast cancer subtypes; conditions: cited from earlier work
Description: It was also reported that a positively charged C-terminal peptide end is responsible for the plasma membrane ...

MDA-MB-231 cells = test: Apoptosis of MDA-MB-231 cells (propidium iodide, flow cytometry); assay type: cell-based, human; conditions: MDA-MB-231, 25 µg/mL, 24 h, 48 h and 72 h, PI, n = 2
Method: Figure 5 Anti-proliferative and apoptotic effect of melittin derivates on the triple-negative breast cancer cell line MDA-MB-231. (A) For the proliferation assay, cells were grown in low density and were treated after 24 h with melittin peptides at a concentration of 25 µg/mL for 72 h. Cells were stained with crystal violet solution. The amount of DNA-bound crystal violet was detected by absorbance measurements. (B) Melt3, 4, and Xac4, which are non-toxic to healthy cells, were further used to test effects on proliferation at 24 h (left) and 48 h (right) at different concentrations. (C) The effects on apoptosis were detected by flow cytometry after 24 h (left), 48 h (middle), and 72 h (right) of treatment. The number of apoptotic cells was determined by staining with propidium iodide (PI). Data are expressed as mean ± SEM. n = 2, * p ≤ 0.05 versus control. Sts, staurosporin 1 µM.
Apoptosis of primary HUVECs was detected according to the method of Nicoletti et al.. […] The percentage of cells with sub-diploidic DNA content was measured using a FACSVerse flow cytometer (BD Biosciences, Heidelberg, Germany).

Row | Substance | inhibition of calmodulin function (calmodulin) | NF-κB activation [1] | iNOS expression and NO synthesis [2] | apoptosis of breast cancer subtypes [3] | apoptosis / cancer cell death (MDA-MB-231 cells)
1 | melittin [Melt, reference compound] | competitive inhibitor of the calmodulin function | prevents NF-κB activation | reduced LPS-activated BV2 microglia iNOS expression and NO synthesis | induce apoptosis | 
2 | xylopin [Xac4] |  |  |  |  | trend of decreased proliferation and increased apoptosis
